# Measured values: US8580321B2, “Method for reducing the effects of chemotherapy using flagellin related polypeptides” (priority 2003, dated 2013)
# Where two headings read alike, the source gives them in different places.
# B1: Flt-3 ligand: cytokine conferring radioprotection (protein, UniProt P49771 27-235, looked up)
# Fms-related tyrosine kinase 3 …: TQDCSFQHSPISSDFAVKIRELSDYLLQDYPVTVASNLQDEELCGGLWRLVLAQRWMERLKTVAGSKMQGLLERVNTEIHFVTKCAFQPPPSCLRFVQTNISRLLQETSEQLVALKPWITRQNFSRCLELQCQPDSSTLPPPWSPRPLEATAPTAPQPPLLLLLLLPVGLLLLAAAWCLHWQRTRRRTPRPGEQVPPVPSPQDLLLVEH
# What was measured:
# lethally irradiated mice = details: cited from earlier work
# [1] = test system: C57B1/6J mice treated with gamma radiation; details: Komarov et al 1999; cited from earlier work
# [2] = test system: C57B1/6J mice treated with gamma radiation; assay: Radioprotection of mice by p53 inhibitor PFTα; assay type: in vivo, mouse; details: I.P. 10 mg/kg
# [3] = test system: NIH Swiss mice treated with cisplatinum; details: i.p.; cited from earlier work
# [4] = in vivo; cited from earlier work
# [5] = test system: NIH Swiss mice treated with cisplatinum; details: 10 mg/kg, after two weeks, n=11
# NF-κB [6] = assay: NF-κB-regulated luciferase reporter assay in H116 human colon cancer cells; assay type: cell-based
# Text: While translocation of NF-κB to the nucleus is a crucial step in induction of NF-κB-regulated inhibitors of apoptosis, it is not sufficient in itself. To directly test the ability of selected fragments to induce expression of NF-κB-regulated genes, we performed reporter assay experiments. Flagellin and the AA′, BB′, A′ and B′ fragments were used for treatment of H116 human colon cancer cells carrying luciferase gene under a NF-κB-responsive promoter. The reporter construct contained three NF-κB-binding sites from the E-selectin promoter combined with a Hsp70 minimal promoter that is routinely used for the detection of NF-κB status of cells. Luciferase activity was measured in cell lysates six hours after addition of flagellin or its truncated fragments into the medium. TNF was used as positive control.
# In order to study the ability of the AA′ fragments to directly activate NF-κB-regulated transcription, we performed reporter assay experiments as described above for a wide range of concentrations of flagellin, original AA′ and AA′-derived fragments.
# NF-κB [7] = assay: EMSA of NF-κB translocation / DNA binding in A549 cells; details: A549 cells, 1 μg/ml, 45 min, EMSA of whole cell extracts
# NF-κB [8] = assay: EMSA of NF-κB binding activity in HT29 human colon cancer cells; assay type: cell-based; details: fragments 1 mg/ml, 15 min
# Protocol: We further minimized the AA′ flagellin fragment by producing additional fragments through stepwise removal of peptide fragments from its N-terminal half (Table 2). […] NF-κB binding activity in HT29 cells was stimulated with TNFa (10 ng/ml), or flagellin fragments (1 mg/ml) for 15 min.
molecule,measurement,setting,value
"C[C@]12CC[C@H]3[C@@H](CC=C4C[C@@H](O)CC[C@@]43C)[C@@H]1CC[C@@H]2O [5-AED, 5-androstenediol, reference compound]",DMF,lethally irradiated mice; subcutaneous injection in mice 24 h before irradiation,1.26
"Cc1ccc(C(=O)Cn2c3c(sc2=N)CCCC3)cc1 [PFTα, pifithrin-alpha]",lethality of wild type animals receiving 6-11 Gy,[1],could be reduced
same,protection from single 9 Gy and fractioned cumulative 12.5 Gy (5×2.5 Gy),[2],protects
same,survival after single 12.5 and 25 Gy doses of IR,[2],no effect on survival
N.N.[Cl][Pt][Cl] [cisplatinum],maximum tolerable dose [MTD],[3],10 mg/kg
same,beta deterioration,[4],60 min
same,"mean loss in body weight, cisplatinum alone",[5],~30%
"AA′n1-170: (1-170)-Linker-(402-505), SEQ ID NO: 30",level of NF-κB-regulated transcription relative to flagellin,"NF-κB [6]; reporter assay, over the studied range of concentrations",comparable to such of flagellin
same,NF-κB reporter activity relative to flagellin,NF-κB [6]; very low concentration range,more active than flagellin
same,NF-κB Stimulation,NF-κB [7],Yes
same,induction of NF-κB translocation,NF-κB [8],induce NF-κB translocation
same,level of NF-κB translocation relative to flagellin,NF-κB [8],comparable to that of flagellin
"SCF: stem cell factor (SCF, c-kit ligand), hematopoietic cytokine and radioprotectant",DMF,lethally irradiated mice; lethally irradiated mice,1.3-1.35
B1,DMF,lethally irradiated mice; lethally irradiated mice,> 1.2
same,30-day survival at LD100/30,lethally irradiated mice; mice,70-80%
